In ChEMBL document CHEMBL1150962, “Activity-guided isolation of steroidal alkaloid antiestrogen-binding site inhibitors from Pachysandra procumbens” (J Nat Prod, 1998):
Calls of active or inactive are those of the source. The calls are words filed in the database; no cut-off is given here.

Key:
[1] = molecular target: Anti-estrogen binding site (Rattus norvegicus); experiment: Displacement of [3H]tamoxifen from antiestrogen binding site in Sprague-Dawley rat liver by liquid scintillation counting
Ishikawa [2] = experiment: Potentiation of tamoxifen-induced antiestrogenic activity in human Ishikawa cells assessed as decrease in tamoxifen IC50 at 2 ug/ml after 4 days by ELISA; assay type: functional, cell-based
Ishikawa [3] = experiment: Potentiation of tamoxifen-induced antiestrogenic activity in human Ishikawa cells assessed as decrease in tamoxifen IC50 at 1 ug/ml after 4 days by ELISA; assay type: functional, cell-based
Ishikawa [4] = experiment: Antiestrogenic activity in human Ishikawa cells assessed as inhibition of estrogen-induced alkaline phosphatase activity after 4 days by ELISA; conditions: 96 h

IC50 [1] [nM] | IC50 (Ishikawa [4]) [nM] | SMILES | Activity (Ishikawa [2]) | Activity (Ishikawa [3])
600 | – | CC(=O)O[C@H]1C(NC(=O)c2ccccc2)=CC[C@]2(C)[C@H]3CC[C@]4(C)[C@@H]([C@H](C)N(C)C)CC[C@H]4[C@@H]3CC[C@@H]12 | – | Active
600 | – | CC(C)=CC(=O)N(C)[C@@H]1CC[C@@]2(C)[C@@H](CC[C@@H]3[C@@H]2CC[C@]2(C)[C@@H]([C@H](C)N(C)C)CC[C@@H]32)C1 [(+)-PACHYSAMINE B] | – | Active
> 20000 | – | C[C@@H]([C@H]1CC[C@H]2[C@@H]3CC[C@H]4C[C@@H](NC(=O)c5ccccc5)CC[C@]4(C)[C@H]3CC[C@]12C)N(C)C [EPIPACHYSAMINE D] | Active | –
– | – | CC(C)[C@@H]1CN(C2=CC[C@@]3(C)[C@@H](CC[C@@H]4[C@@H]3CC[C@]3(C)[C@@H]([C@H](C)N(C)C)CC[C@@H]43)C2=O)C1=O | Active | –
400 | – | CO[C@H]1CC[C@@]2(C)C(=CC[C@H]3[C@@H]4CC[C@H]([C@H](C)N(C)C)[C@@]4(C)CC[C@@H]32)C1 | Active | –
– | 420 | CC/C(=C(\c1ccccc1)c1ccc(OCCN(C)C)cc1)c1ccccc1 [TAMOXIFEN] | – | –
3500 | – | CC(C)[C@@H]1CN(C2=CC[C@@]3(C)[C@@H](CC[C@@H]4[C@@H]3CC[C@]3(C)[C@@H]([C@H](C)N(C)C)[C@@H](O)C[C@@H]43)C2=O)C1=O | Active | –
– | – | CC(=O)O[C@H]1[C@@H](N2C(=O)c3ccccc3C2=O)[C@H](O)C[C@]2(C)[C@H]3CC[C@]4(C)[C@@H]([C@H](C)N(C)C)CC[C@H]4[C@@H]3CC[C@@H]12 | Active | –

SMILES | IC50 [1] [nM] | IC50 (Ishikawa [4]) [nM] | Activity (Ishikawa [2]) | Activity (Ishikawa [3])
C[C@@H]([C@H]1CC[C@H]2[C@@H]3CC[C@H]4C[C@]5(CC[C@]4(C)[C@H]3CC[C@]12C)c1ccccc1C(=O)N5C)N(C)C | 7400 | – | Active | –
C[C@@H]([C@H]1CC[C@H]2[C@@H]3CC[C@H]4C(=O)C(NC(=O)c5ccccc5)=CC[C@]4(C)[C@H]3CC[C@]12C)N(C)C | 8000 | – | Active | –
